Laboratory results taken from patent US20080014230A1, “Cosmetic compositions combining a C-glycoside derivative and an N-acylamino amide derivative” (L'OREAL, priority 2006, published 2008).

Tested on: keratinocyte transglutamase (TGk) activity in normal human epidermal keratinocytes (NHEK) of R3KO15 type
Assay: keratinocyte transglutamase (TGk) activity after prolonged contact of keratinocytes with the test composition
Assay type: cell-based
Conditions: for Activity/μg: TGk activity relative to the amount of proteins, calcium-free medium; for %/blank: TGk activity, % of blank (−Ca)
Method: The tests performed below use normal human epidermal keratinocytes (NHEK) of R3KO15 type obtained from breast surgery.
The activity of a composition in accordance with the invention is tested with regard to these keratinocytes by assaying the keratinocyte transglutamase (TGk) activity after prolonged contact of the keratinocytes with the test composition, the increase in TGk activity sanctioning a stimulation of keratinocyte differentiation.
The activity is tested in an SFM medium available from Invitrogen under the reference 17005034.
Its composition is as follows: • EGF 0.25 ng/ml, • pituitary extract (PE) 25 μg/ml (Invitrogen 3700015), • gentamycin 25 μg/ml (Sigma G1397) • optionally supplemented with 1.5 mM final calcium chloride (Prolabo 22317297).
Keratinocytes (R3KO15) are precultured in SFM1x medium in 96-well plates (one plate for the test, one for the protein assay and one for the MTT). After incubation for 24 hours at 37° C., the culture medium is removed and replaced with SFM medium, which is not supplemented (calcium-free blank) or supplemented with 1.5 mM final of calcium chloride and not containing (blank) or containing the products, mixed with the test or the references.
After incubation for 48 hours at 37° C. and 5% CO2, the culture medium is removed and the cells are again treated and then incubated for 48 hours at 37° C.
All the experimental conditions are performed in hexaplicate.
The cell lawns are washed and then sonicated, on ice, in Tris/EDTA pH 8.0 buffer.
The membrane TGk enzyme is extracted in the presence of Triton X-100 (incubation with stirring at 4° C.) and the TGk activity is then determined by measuring the covalent addition of tritiated putrescine at 2 μCi/ml final (Amersham TRK 414; 1.04 TBq/mmol, 28 Ci/mmol) to casein (acceptor protein, 2 mg/ml final), in a Tris 0.1 M, CaCl2 4 mM, EDTA 0.4 mM, DTT 5 mM, pH 8.3 buffer, for 2 hours at 37° C.
The casein is precipitated by addition of 20% trichloroacetic acid (TCA) containing 1 mM putrescine and the precipitates are recovered on a Skatron filter and collector (extensive washing with 5% TCA, 0.1 mM putrescine and ethanol) and the dry filters are then counted by liquid scintillation.
The proteins of each sample are assayed using the Dc Protein Assay kit (BioRad 500-0116) and according to the protocol recommended by the manufacturer.
The results obtained are given in Table 1 below, the TGk activity being relative to the amount of proteins—calcium-free medium.

For `CC(=O)N(c1cccc(C(F)(F)F)c1)C(C(=O)NCC(=O)O)C(C)C` (centres unmarked) [N-acylamino amide, {2-[acetyl(3-trifluoromethyl-phenyl)amino]-3-methylbutyrylamino}acetic acid], the Activity/μg (0.04 mg/ml) was 114, the Activity/μg (0.2 mg/ml) was 104 and the “%/blank” value (0.04 mg/ml) was 91%. The “%/blank” value (0.2 mg/ml) was 82% and the “effect on the TGk activity (in words)” value (tested at 0.2 mg/ml and 0.04 mg/ml) was “no significant effect”.

With `CC(O)C[C@@H]1OC[C@@H](O)[C@H](O)[C@H]1O` (stereo partly drawn) [C-glycoside, C-β-D-xylopyranoside-2-hydroxypropane] the Activity/μg (1 mM) was 171, the Activity/μg (3 mM) was 210 and the “%/blank” value (1 mM) was 136%. For the same molecule, the “%/blank” value (3 mM) was 167%.

`CC1=C(/C=C/C(C)=C/C=C/C(C)=C/C(=O)O)C(C)(C)CCC1` [Retinoic acid, retinoic acid, reference compound] was tested, and the Activity/μg (10^−7 M) was 111 and the “%/blank” value (10^−7 M) was 88%.
